From patent US20180071242A1, “SUBSTITUTED ACYLANILIDES AND METHODS OF USE THEREOF” (University of Tennessee Research Foundation, priority 2006, published 2018)

Columns and labels:
[1] = target: T1, CYP2C19 (Homo sapiens, UniProt P33261); assay: CYP inhibition screening, recombinant enzyme (fluorescent-based) assay; type: in vitro ADME; settings: for Inhibition of CYP2C19 activity (in words): human, human cDNA-expressed (recombinant) CYP2C19, 30 min
T1 construct: purchased Gentest, BD Biosciences

[2] = target: T2, ER-β (Rattus norvegicus, UniProt Q62986); assay: Transient transfection luciferase transactivation assay in HEK-293 cells; type: cell-based; settings: for ER-β transactivation, agonist mode (in words): up to the highest tested concentration (1 μM); for Inhibition of estradiol-induced ER-β activity, antagonist mode (in words): with 1 nM estradiol
T2 construct: expressed in transfected cells; host or cells: HEK-293

[3] = target: T3, MR (Rattus norvegicus, UniProt P22199); assay: as above; type: cell-based; settings: for MR-mediated transactivation, agonist mode (in words): all tested concentrations; for Inhibition of aldosterone-induced MR-mediated transactivation, antagonist mode (in words): with 1 nM aldosterone
T3 construct: expressed in transfected cells; host or cells: HEK-293
T3 sequence (P22199 1-981): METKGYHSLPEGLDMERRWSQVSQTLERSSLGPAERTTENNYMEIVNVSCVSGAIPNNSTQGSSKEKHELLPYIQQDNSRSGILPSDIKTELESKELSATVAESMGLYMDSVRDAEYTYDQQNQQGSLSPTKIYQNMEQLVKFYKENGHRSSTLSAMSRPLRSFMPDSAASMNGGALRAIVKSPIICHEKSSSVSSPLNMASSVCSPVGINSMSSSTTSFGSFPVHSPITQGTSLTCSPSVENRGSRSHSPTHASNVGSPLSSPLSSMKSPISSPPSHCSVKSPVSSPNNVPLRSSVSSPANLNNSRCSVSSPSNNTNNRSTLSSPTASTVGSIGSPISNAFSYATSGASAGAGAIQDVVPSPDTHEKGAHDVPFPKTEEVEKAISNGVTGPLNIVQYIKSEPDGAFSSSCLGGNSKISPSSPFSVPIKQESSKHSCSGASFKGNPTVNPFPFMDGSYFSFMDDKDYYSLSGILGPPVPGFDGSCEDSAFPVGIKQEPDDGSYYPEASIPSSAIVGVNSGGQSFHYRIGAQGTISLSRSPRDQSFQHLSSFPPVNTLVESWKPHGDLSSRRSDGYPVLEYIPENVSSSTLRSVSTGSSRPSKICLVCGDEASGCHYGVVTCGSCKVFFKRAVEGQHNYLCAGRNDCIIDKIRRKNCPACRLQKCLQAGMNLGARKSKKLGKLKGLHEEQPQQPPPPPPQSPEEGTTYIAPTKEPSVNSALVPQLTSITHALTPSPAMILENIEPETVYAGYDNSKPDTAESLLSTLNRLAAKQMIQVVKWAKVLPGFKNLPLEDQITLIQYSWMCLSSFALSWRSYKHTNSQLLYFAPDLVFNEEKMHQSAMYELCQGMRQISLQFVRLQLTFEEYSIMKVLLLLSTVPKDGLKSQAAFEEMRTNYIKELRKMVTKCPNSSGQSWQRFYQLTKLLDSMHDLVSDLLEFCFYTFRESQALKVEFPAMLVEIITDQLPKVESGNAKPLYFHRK

[4] = target: T4, ER-α (Rattus norvegicus, UniProt P06211); assay: as above; type: cell-based; settings: for ER-α transactivation, agonist mode (in words): up to the highest tested concentration (1 μM); for Inhibition of estradiol-induced ER-α activity, antagonist mode (in words): with 1 nM estradiol
T4 construct: expressed in transfected cells; host or cells: HEK-293
T4 sequence (P06211 1-600): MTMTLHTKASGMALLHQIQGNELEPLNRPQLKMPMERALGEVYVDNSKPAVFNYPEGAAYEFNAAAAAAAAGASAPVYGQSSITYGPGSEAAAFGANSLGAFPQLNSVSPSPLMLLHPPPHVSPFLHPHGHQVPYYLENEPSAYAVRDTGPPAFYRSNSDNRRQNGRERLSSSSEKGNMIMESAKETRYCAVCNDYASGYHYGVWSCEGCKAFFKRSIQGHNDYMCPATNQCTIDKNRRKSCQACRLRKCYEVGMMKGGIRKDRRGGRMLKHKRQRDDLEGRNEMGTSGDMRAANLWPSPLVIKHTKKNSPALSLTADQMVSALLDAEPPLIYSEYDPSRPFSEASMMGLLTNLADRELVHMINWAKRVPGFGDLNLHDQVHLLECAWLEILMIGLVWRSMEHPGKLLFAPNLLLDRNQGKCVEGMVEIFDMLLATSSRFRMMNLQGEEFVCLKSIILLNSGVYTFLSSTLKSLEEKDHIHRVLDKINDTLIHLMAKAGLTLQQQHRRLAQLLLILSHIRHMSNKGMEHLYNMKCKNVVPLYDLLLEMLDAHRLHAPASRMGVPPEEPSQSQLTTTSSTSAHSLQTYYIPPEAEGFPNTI

[5] = target: T5, CYP2C9 (Homo sapiens, UniProt P11712); assay: CYP inhibition screening, recombinant enzyme (fluorescent-based) assay; type: in vitro ADME; settings: for Inhibition of CYP2C9 activity (in words): human, 30 min
T5 construct: purchased Gentest, BD Biosciences

[6] = target: T6, PR (Rattus norvegicus, UniProt Q63449); assay: Transient transfection luciferase transactivation assay in HEK-293 cells; type: cell-based; settings: for PR-mediated transactivation, agonist mode (in words): all tested concentrations
T6 construct: expressed in transfected cells; host or cells: HEK-293
T6 sequence (Q63449 1-923): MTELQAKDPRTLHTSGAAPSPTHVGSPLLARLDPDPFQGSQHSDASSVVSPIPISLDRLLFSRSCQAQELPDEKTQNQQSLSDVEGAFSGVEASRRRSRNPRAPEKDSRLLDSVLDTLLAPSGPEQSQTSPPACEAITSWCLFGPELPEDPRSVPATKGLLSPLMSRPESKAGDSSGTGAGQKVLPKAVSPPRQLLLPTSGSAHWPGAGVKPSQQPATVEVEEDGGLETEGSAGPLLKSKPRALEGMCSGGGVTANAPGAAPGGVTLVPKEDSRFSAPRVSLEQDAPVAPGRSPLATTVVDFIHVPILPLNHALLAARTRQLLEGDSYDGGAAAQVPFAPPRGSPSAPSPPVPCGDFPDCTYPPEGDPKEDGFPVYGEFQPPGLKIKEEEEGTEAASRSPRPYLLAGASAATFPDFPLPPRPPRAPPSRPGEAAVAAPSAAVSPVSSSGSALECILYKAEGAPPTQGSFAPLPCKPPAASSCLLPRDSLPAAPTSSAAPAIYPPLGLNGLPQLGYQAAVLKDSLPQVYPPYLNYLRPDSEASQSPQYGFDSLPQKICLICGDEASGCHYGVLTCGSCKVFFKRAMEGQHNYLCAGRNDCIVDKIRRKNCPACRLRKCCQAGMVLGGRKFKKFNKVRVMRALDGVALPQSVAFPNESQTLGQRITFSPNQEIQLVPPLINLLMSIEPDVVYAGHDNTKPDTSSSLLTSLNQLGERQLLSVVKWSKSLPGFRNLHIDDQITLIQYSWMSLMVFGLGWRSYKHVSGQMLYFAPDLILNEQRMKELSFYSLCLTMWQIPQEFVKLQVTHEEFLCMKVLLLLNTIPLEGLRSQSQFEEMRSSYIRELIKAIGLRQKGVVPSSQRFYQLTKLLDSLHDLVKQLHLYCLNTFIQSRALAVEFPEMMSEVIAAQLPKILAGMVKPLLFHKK

[7] = 1 and 10 μM, with 1 nM progesterone

T5 sequence (P11712 whole entry): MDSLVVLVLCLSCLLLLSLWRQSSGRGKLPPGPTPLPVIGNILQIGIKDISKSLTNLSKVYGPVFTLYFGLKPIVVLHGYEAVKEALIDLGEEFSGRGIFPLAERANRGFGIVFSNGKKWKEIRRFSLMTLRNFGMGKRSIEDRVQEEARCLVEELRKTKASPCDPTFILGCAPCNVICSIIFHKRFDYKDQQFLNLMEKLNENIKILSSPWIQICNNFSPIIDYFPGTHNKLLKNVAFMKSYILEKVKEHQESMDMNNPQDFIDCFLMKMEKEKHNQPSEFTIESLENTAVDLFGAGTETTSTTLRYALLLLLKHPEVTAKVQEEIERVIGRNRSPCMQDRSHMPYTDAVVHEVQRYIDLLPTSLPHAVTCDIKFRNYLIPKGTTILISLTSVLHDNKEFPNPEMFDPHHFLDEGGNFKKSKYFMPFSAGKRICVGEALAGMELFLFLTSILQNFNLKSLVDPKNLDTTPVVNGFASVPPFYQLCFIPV
T1 sequence (P33261 whole entry): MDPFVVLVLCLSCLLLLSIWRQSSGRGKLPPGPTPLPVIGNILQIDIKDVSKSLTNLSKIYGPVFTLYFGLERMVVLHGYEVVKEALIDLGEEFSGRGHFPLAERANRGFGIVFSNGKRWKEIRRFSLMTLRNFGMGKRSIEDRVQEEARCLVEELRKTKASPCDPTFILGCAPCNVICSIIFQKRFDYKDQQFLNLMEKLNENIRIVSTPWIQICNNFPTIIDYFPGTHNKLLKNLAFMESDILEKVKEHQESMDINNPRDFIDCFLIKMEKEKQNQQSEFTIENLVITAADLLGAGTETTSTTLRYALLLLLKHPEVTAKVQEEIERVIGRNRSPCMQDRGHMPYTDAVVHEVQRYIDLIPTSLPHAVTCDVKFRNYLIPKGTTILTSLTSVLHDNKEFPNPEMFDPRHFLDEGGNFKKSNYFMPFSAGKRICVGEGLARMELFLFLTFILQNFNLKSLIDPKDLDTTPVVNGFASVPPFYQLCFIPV
T2 sequence (Q62986 whole entry): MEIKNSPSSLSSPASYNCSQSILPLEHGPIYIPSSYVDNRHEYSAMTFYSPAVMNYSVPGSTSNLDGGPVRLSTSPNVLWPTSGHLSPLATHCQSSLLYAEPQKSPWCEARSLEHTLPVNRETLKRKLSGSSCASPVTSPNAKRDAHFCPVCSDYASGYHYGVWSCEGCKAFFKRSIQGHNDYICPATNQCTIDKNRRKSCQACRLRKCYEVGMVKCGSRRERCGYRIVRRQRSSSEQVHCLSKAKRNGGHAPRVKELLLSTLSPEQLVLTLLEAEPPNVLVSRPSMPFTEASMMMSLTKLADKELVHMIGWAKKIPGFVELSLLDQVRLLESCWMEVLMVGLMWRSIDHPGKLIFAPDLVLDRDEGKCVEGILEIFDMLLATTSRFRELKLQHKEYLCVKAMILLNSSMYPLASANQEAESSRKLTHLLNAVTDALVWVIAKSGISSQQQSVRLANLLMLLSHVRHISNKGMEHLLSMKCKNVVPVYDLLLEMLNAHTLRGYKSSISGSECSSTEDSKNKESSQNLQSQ

Row | Structure (SMILES) | IC50 [1] [nM] | ER-β transactivation, agonist mode (in words) [2] | Inhibition of estradiol-induced ER-β activity, antagonist mode (in words) [2] | MR-mediated transactivation, agonist mode (in words) [3] | Inhibition of aldosterone-induced MR-mediated transactivation, antagonist mode (in words) [3] | ER-α transactivation, agonist mode (in words) [4] | Inhibition of estradiol-induced ER-α activity, antagonist mode (in words) [4] | IC50 [5] [µM] | Inhibition of CYP2C9 activity (in words) [5] | Inhibition of PR activity, antagonist mode (in words) ([6]; 0.1 μM and 10 μM) | Increase of PR transactivation, agonist mode ([6]; 1 μM) [fold] | Inhibition of PR-mediated transactivation, antagonist mode (in words) ([6]; 1 μM) | Increase of PR transactivation, agonist mode ([6]; 10 μM) [fold] | PR-mediated transactivation, agonist mode (in words) [6] | PR antagonistic activity relative to RU486 (fold weaker) ([6]; versus RU486) | PR agonist potency relative to progesterone (fold weaker) ([6]; versus endogenous agonist progesterone) | Inhibition of CYP2C19 activity (in words) [1] | Inhibition of PR activity, antagonist mode (in words) [6, 7]
1 | C[C@](O)(COc1ccc(C#N)cc1)C(=O)Nc1ccc(C#N)c(Cl)c1 [S-(I), (S)—N-(3-chloro-4-cyanophenyl)-3-(4-cyanophenoxy)-2-hydroxy-2-methylpropanamide] | > 20000 | failed to activate | failed to alter | failed to activate | failed to alter | failed to activate | failed to alter | 5.1 | did not appreciably inhibit | significantly partially inhibited | 3 | completely inhibited | 8 | partial agonist activity | about 1,000 fold | greater than 10,000 fold | – | –
2 | C[C@](O)(COc1ccc(Cl)cc1)C(=O)Nc1ccc(C#N)c(C(F)(F)F)c1 [S-(II)] | 100 | failed to activate | failed to alter | did not induce | not inhibited | failed to activate | failed to alter | 3.8 | moderate inhibition | – | – | – | – | did not induce | – | – | moderate inhibition | significantly inhibited
3 | C[C@](O)(COc1ccc(F)cc1)C(=O)Nc1ccc(C#N)c(C(F)(F)F)c1 [S-(III)] | 100 | failed to activate | failed to alter | did not induce | not inhibited | failed to activate | failed to alter | 1.3 | moderate inhibition | – | – | – | – | did not induce | – | – | moderate inhibition | significantly inhibited
